Results on one compound are retold here after publication PMC7005646, “Overcoming resistance to anabolic SARM therapy in experimental cancer cachexia with an HDAC inhibitor” (EMBO Molecular Medicine, 2020).

The structures appear in SMILES notation.

Series [1] concerns LLC tumor‐bearing mice. The series is described as follows: AR‐42/GTx‐024 combination study in the LLC cachexia model (Study 5). The class given is in vivo, mouse. Conditions: repeat of Study 5; 10 mg/kg AR‐42, 0.5 mg/kg GTx‐024, or both. As to the method:
This study was performed as previously described (Tseng et al, 2015a) with modifications. Tumors were established in the right hindlimb of male C57BL/6NHsd mice by intramuscular injection of LLC cells (0.5 × 10^6 cells in 0.05 ml). Similar to Study 3, the tumor‐free control group was maintained at six animals, whereas 12 animals were included in each of the tumor‐bearing groups. […] Grip strength, body weight, and food consumption were measured, and tissues were collected as in the previous C‐26 studies.

The test system of series [2] is serum cytokines. The series is described as follows: Serum cytokine panel (multiplex), terminal samples from Study 2. The class given is in vivo, mouse. As to the method: (§1) This confirmatory study was performed exactly as Study 1 with expanded animal numbers. Tumor‐free control groups were maintained at 6 animals each, whereas 10 animals were included in each of the tumor‐bearing groups. […] Grip strength was measured on study days 0 (baseline) and 16. Due to rapid model progression, this study was terminated on day 17 after only 12 days of treatment.
Serum cytokine panel analyses were performed by a commercial vendor (Eve Technologies, Calgary, Canada) as previously described (Tseng et al, 2015a). Serum interleukin‐6 (IL‐6) was measured using a commercial ELISA kit (R&D Systems, Minneapolis, MN, USA) according to the manufacturer's instructions.

On the set-up of series [3]: method as in Sborov et al, 2017. Conditions: patients; ref Sborov et al, 2017; cited from earlier work.
Series [4] has as its system pSTAT3 (Y705). The series is described as follows: pSTAT3/tSTAT3 Western blot of gastrocnemius muscle. The class given is in vivo, mouse. As to the method:
Western blots from all studies were performed on gastrocnemius muscle from representative animals lysed by Nonidet P‐40 isotonic lysis buffer [50 mM Tris–HCl, pH 7.5, 120 mM NaCl, 1% (v/v) Nonidet P‐40, 1 mM EDTA, 50 mM NaF, 40 mM glycerophosphate, and […] each of protease inhibitors (aprotinin, pepstatin, and leupeptin)]. Equivalent amounts of protein from each sample, as determined by the Bradford assay (Bio‐Rad), were resolved by SDS–PAGE and then transferred (semi‐dry) onto Immobilon nitrocellulose membranes (Millipore, Bellerica, MA). Membranes were washed twice with TBST [Tris‐buffered saline (TBS) containing 0.1% Tween‐20], blocked with 5% non‐fat milk in TBST for 1 h, and then washed an additional three times. Membranes were incubated with specific primary antibody in TBST (1:1,000) at 4°C overnight, washed three times (TBST), and then incubated with appropriate goat anti‐rabbit or anti‐mouse IgG–horseradish peroxidase‐conjugated secondary antibodies (1:5,000) at room temperature (1 h). Following additional washes (TBST), immunoblots were visualized as appropriate by ECL chemiluminescence (Amersham Biosciences, Little Chalfont, United Kingdom) or Duration HRP Chemiluminescence (Alkali Scientific, Florida, United States). Primary antibodies: phospho‐STAT3 (Tyr705) (D3A7) XP® rabbit mAb #9145, STAT3 (124H6) mouse mAb #9139 (Cell Signaling Technology, Danvers, MA); α‐tubulin (B‐7), sc‐5286 (Santa Cruz Biotechnologies, Santa Cruz, CA); androgen receptor (EP670Y), ab52615 (Abcam, Cambridge, MA) and GAPDH (6C5), sc‐32233 (Santa Cruz Biotechnologies, Santa Cruz, CA).
On the technique in general: Immunoblotting shows a protein as a band on a membrane.

Series [5] deals with C‐26 tumor‐bearing mice. The series is described as follows: Initial AR‐42/GTx‐024 combination study (Study 1), male C‐26 tumor‐bearing mice. The series is classed as in vivo, mouse. To be noted: Study 1, male, GTx‐024 15 mg/kg, AR‐42 10 mg/kg, or both.
The test system of series [6] is class I HDACs. The series is described as follows: In vitro HDAC inhibition assay, class I isoforms. The class given is biochemical, human. Conditions: 1 μM AR‐42; range over isoforms. As for the experimental part:
HDAC activity was measured by a commercial vendor using human recombinant HDAC enzymes and fluorogenic HDAC substrates (Eurofins Cerep SA, Celle L'Evescault, France). Substrate concentrations ranged from 20 to 400 μM, and incubation conditions ranged from 10 to 90 min (RT or 37°C), depending on isoform. Results are expressed as percent inhibition of control specific activity in the presence of 1 μM AR‐42.

Series [7] concerns C‐26 tumor‐bearing mice. Description: Confirmatory AR‐42/GTx‐024 combination study (Study 2), male C‐26 tumor‐bearing mice. The series is classed as in vivo, mouse. As for the experimental part:
These studies were performed as previously described (Tseng et al, 2015a) with modifications. Tumors were established in the right flank of CD2F1 mice by subcutaneous injection of C‐26 cells (0.5 × 10^6 cells in 0.1 ml). […] TFM‐4AS‐1 (a potent experimental SARM), DHT, and vehicles were administered by subcutaneous injection.
as §1
Forelimb grip strength was measured using Bio‐GS3 Grip Strength Test Meter (Forceleader DBA Bioseb, Pinellas Park, FL). Each mouse was held by the base of its tail and lowered over the apparatus until its forepaws grasped the metal pull bar. The mouse was then gently pulled horizontally in a straight line away from the grip strength meter until the mouse released the bar. The force applied to the bar at the moment of release was recorded as the peak force. Five measurements were taken from each mouse, the average of which was designated as the mouse's grip strength.

Series [8] deals with pSTAT3 in C‐26 tumors. The series is described as follows: Phospho‐STAT3/STAT3 ELISA in C‐26 tumor tissues, Study 2. Conditions: Study 2, 10 mg/kg. The series is classed as in vivo, mouse. As for the experimental part:
Expression of phospho‐STAT3 and total STAT3 in C‐26 tumor tissues was measured using commercial sandwich ELISA kits according to the manufacturer's instructions (PathScan® Phospho‐Stat3, #7300, and Total Stat3, #7305, Cell Signaling Technology, Danvers, MA).

The mark [9] stands for this setting: C‐26 Tumor‐bearing, GTx‐024 15 mg/kg, AR‐42 10 mg/kg, or both, mean ± SD.
The mark [10] stands for this setting: Study 2, AR‐42 10 mg/kg alone or with GTx‐024 15 mg/kg.

For `CC(C)[C@H](C(=O)Nc1ccc(C(=O)NO)cc1)c1ccccc1` [AR‐42], the “response of body weight and skeletal muscle mass loss” value in series [1] is listed as “did not respond”. For the same compound, in series [2] (setting [9]), the “GM‐CSF, serum” value was determined as 18.70 ± 3.77 pg/mL; the “G‐CSF, serum” value was determined as 2782.18 ± 2191.30 pg/mL; the “IL‐6, serum” value was found to be 256.59 ± 183.1 pg/mL; the “IL‐17, serum” value was 1.82 ± 0.85 pg/mL. In addition, in series [2] (setting [9]), the “IP‐10, serum” value amounted to 215.35 ± 52.46 pg/mL; the “KC, serum” value came to 363.38 ± 200.65 pg/mL; the “LIF, serum” value was 15.79 ± 5.15 pg/mL; the “LIX, serum” value is 2515.38 ± 3119.67 pg/mL. The “M‐CSF, serum” value in series [2] (setting [9]) turned out to be 20.21 ± 4.63 pg/mL. In addition, the “effect on circulating cytokine levels” value in series [2] (Study 2, 10 mg/kg monotherapy, tumor‐bearing) is “did not significantly reduce circulating levels of any evaluated cytokine”. Moreover, the “well‐tolerated plasma exposure in humans” value in series [3] was 8.5 µM·h. For the same compound, the pSTAT3 in gastrocnemius entry in series [4] (female C‐26 tumor‐bearing mice, Study 3) is on record as “reduced levels of pSTAT3 activation”. Moreover, the pSTAT3 in gastrocnemius result in series [4] (male C‐26 tumor‐bearing mice, Study 1) is on record as “reduced pSTAT3 but not equally in all animals”. In series [5] (day 18, 13 days daily oral), the “terminal body weight corrected for tumor mass” value is 91.2 ± 3.7 % of tumor‐free controls. Moreover, in series [5] (day 18), the terminal gastrocnemius mass is 94.3 ± 1.4 % of tumor‐free controls and the terminal quadriceps mass is recorded as 93.2 ± 6.3 % of tumor‐free controls. Moreover, in series [6], the “inhibition of class I HDACs” value is on record as 72–95%. Also, the “effect on adipose tissue (epididymal fat pad)” value in series [7] (Study 2, 10 mg/kg) was “no impact on adipose tissue”. In series [7] (setting [10]), the “forelimb grip strength over vehicle‐treated tumor‐bearing controls” value is reported as “improved grip strength”; the “gastrocnemius and quadriceps mass relative to GTx‐024 monotherapy” value is “significantly improved gastrocnemius and quadriceps mass”. The “pSTAT3 signaling within the C‐26 tumors” value in series [8] is recorded as “did not significantly suppress”.
